We go through one compound from US20140186306A1, “NOVEL AMPK AGONIST COMPOSITIONS AND METHODS OF USE” (priority 2012, published 2014).

The test system of data set [1] is mice. To be noted: oral dose of 500 mg/Kg/day over a 4 week period; cited from earlier work.
The conditions of data set [2]: human, in vivo, cited from earlier work.
Data set [3] relates to horses with joint and/or soft tissue lameness. Kind of data set: Clinical response of racing and non-racing horses with joint and/or soft tissue lameness to AICAR injected intra-articularly or locally infiltrated. It is filed as in vivo, horse. The following applies: all treated horses; localized injection of 1.3 mg/ml AICAR.
Description: In the examples below the novel or test composition indicated as NOVEL was comprised of 1.3 mg/ml solutions of AICAR. The purpose of this study was to evaluate the clinical response of racing and non-racing horses with joint and/or soft tissue lameness to various doses of AICAR, either injected intra-articularly or locally infiltrated into the affected soft tissue structure. […] In most cases, multiple joints or soft tissue structures per animal were treated. In some cases, joints and soft tissue structures were injected simultaneously.
Addition of 0.5 ml of an aminoglycoside antibiotic per 2.5 ml vial of AICAR was left up to the discretion of the attending veterinarian. Prior to the treatment, each case was graded for lameness, swelling and heat, and pain. Each injected joint received either one, 1.3 mg/ml, 2.5 ml dose (3.25 mg) for a small joint, or two, 2.5 ml dose vials for large (stifle) joints. Soft tissue structures, including tendons and tendon sheaths, suspensory ligaments, exostoses (splints), periosteal osteitis, and perineural injections were done with multiple vials of the AICAR. The dose was dependent upon the perceived surface area to be treated. The horses were re-examined at various times post-injection as most horses were stabled at locations remote to the veterinarians. All cases were followed up by telephone calls to trainers/caretakers within 24 hours. […]

For `NC(=O)c1ncn([C@@H]2O[C@H](CO)[C@@H](O)[C@H]2O)c1N` [AICAR, 5-amino-1-β-D-ribofuranosyl-imidazole-4-carboxamide], the performance-enhancing activity entry in data set [1] is recorded as “performance-enhancing activity”. Further, the oral bioavailability entry in data set [2] (po) is recorded as “less than 5%”. Also, the plasma clearance in data set [2] is 36.7 mL/min/kg. Besides, the adverse events entry in data set [3] is listed as “No adverse events were reported with the exception of transient swelling of a fetlock that was traumatically injected”.
